Test results from PMC3433743 (Bioorganic & medicinal chemistry letters, 2012).
Entries after “also recorded” stand apart in the source; their conditions may differ. Like-named read-outs stand apart in the source and are kept apart here.

What was measured:
[1] = cited from earlier work
LRRK2[A2016T] = LRRK2[A2016T] (Homo sapiens, UniProt Q5S007, A2016T); assay: LRRK2 enzymatic assay, A2016T mutant; details: biochemical, Fig. 1
GFP-LRRK2[A2016T] = GFP-LRRK2[A2016T] (Homo sapiens, UniProt Q5S007, A2016T); format: cell-based; details: HEK293, LRRK2[A2016T], 90 min
endogenous LRRK2 = endogenous LRRK2 (Mus musculus, UniProt Q5S006); format: in vivo
CAMKKβ = CAMKKβ (Homo sapiens, UniProt Q96RR4); assay: Radioactivity-based enzymatic kinase panel; details: read-out: Inhibition of kinase activity
CHK2 = CHK2 (Homo sapiens, UniProt O96017); assay: Radioactivity-based enzymatic kinase panel; details: read-out: Inhibition of kinase activity
NUAK1 = biological target: T1, NUAK1 (Homo sapiens, UniProt O60285); assay: Radioactivity-based enzymatic kinase panel; details: read-out: Inhibition of kinase activity
T1 sequence (O60285 1-661): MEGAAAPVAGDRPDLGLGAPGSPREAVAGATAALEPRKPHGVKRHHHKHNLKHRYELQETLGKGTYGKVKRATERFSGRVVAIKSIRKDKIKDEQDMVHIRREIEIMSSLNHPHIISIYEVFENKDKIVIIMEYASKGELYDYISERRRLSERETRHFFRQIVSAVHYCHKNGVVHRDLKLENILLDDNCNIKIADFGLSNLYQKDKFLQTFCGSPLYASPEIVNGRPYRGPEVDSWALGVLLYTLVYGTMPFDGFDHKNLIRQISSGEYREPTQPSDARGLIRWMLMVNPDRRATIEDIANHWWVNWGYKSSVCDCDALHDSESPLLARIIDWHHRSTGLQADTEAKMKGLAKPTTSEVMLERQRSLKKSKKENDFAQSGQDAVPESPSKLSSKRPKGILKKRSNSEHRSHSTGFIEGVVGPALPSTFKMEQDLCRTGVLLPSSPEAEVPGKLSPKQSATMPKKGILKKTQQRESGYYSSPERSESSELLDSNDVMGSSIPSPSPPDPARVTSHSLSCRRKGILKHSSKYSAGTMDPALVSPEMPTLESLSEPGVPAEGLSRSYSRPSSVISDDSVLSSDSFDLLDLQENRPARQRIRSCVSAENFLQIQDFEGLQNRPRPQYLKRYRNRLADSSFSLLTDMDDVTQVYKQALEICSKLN

PHKã1(PBK) = PHKã1(PBK) (Homo sapiens, UniProt Q16816); assay: Radioactivity-based enzymatic kinase panel; details: read-out: Inhibition of kinase activity
TSSK1 = biological target: T2, TSSK1 (Homo sapiens, UniProt Q9BXA7); assay: Radioactivity-based enzymatic kinase panel; details: read-out: Inhibition of kinase activity
T2 sequence (Q9BXA7 1-367): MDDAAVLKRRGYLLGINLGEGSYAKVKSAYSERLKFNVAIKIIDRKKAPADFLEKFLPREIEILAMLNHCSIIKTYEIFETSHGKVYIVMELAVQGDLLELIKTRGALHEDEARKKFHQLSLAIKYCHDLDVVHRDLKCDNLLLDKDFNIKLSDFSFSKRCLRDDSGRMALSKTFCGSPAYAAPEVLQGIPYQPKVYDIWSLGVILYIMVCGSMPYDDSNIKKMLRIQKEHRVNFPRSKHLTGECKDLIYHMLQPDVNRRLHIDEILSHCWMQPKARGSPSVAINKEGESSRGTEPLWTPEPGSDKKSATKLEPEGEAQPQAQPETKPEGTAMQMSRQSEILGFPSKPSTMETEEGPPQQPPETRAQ

Chain of LRRK2[A2016T] (Q5S007 whole entry A2016T): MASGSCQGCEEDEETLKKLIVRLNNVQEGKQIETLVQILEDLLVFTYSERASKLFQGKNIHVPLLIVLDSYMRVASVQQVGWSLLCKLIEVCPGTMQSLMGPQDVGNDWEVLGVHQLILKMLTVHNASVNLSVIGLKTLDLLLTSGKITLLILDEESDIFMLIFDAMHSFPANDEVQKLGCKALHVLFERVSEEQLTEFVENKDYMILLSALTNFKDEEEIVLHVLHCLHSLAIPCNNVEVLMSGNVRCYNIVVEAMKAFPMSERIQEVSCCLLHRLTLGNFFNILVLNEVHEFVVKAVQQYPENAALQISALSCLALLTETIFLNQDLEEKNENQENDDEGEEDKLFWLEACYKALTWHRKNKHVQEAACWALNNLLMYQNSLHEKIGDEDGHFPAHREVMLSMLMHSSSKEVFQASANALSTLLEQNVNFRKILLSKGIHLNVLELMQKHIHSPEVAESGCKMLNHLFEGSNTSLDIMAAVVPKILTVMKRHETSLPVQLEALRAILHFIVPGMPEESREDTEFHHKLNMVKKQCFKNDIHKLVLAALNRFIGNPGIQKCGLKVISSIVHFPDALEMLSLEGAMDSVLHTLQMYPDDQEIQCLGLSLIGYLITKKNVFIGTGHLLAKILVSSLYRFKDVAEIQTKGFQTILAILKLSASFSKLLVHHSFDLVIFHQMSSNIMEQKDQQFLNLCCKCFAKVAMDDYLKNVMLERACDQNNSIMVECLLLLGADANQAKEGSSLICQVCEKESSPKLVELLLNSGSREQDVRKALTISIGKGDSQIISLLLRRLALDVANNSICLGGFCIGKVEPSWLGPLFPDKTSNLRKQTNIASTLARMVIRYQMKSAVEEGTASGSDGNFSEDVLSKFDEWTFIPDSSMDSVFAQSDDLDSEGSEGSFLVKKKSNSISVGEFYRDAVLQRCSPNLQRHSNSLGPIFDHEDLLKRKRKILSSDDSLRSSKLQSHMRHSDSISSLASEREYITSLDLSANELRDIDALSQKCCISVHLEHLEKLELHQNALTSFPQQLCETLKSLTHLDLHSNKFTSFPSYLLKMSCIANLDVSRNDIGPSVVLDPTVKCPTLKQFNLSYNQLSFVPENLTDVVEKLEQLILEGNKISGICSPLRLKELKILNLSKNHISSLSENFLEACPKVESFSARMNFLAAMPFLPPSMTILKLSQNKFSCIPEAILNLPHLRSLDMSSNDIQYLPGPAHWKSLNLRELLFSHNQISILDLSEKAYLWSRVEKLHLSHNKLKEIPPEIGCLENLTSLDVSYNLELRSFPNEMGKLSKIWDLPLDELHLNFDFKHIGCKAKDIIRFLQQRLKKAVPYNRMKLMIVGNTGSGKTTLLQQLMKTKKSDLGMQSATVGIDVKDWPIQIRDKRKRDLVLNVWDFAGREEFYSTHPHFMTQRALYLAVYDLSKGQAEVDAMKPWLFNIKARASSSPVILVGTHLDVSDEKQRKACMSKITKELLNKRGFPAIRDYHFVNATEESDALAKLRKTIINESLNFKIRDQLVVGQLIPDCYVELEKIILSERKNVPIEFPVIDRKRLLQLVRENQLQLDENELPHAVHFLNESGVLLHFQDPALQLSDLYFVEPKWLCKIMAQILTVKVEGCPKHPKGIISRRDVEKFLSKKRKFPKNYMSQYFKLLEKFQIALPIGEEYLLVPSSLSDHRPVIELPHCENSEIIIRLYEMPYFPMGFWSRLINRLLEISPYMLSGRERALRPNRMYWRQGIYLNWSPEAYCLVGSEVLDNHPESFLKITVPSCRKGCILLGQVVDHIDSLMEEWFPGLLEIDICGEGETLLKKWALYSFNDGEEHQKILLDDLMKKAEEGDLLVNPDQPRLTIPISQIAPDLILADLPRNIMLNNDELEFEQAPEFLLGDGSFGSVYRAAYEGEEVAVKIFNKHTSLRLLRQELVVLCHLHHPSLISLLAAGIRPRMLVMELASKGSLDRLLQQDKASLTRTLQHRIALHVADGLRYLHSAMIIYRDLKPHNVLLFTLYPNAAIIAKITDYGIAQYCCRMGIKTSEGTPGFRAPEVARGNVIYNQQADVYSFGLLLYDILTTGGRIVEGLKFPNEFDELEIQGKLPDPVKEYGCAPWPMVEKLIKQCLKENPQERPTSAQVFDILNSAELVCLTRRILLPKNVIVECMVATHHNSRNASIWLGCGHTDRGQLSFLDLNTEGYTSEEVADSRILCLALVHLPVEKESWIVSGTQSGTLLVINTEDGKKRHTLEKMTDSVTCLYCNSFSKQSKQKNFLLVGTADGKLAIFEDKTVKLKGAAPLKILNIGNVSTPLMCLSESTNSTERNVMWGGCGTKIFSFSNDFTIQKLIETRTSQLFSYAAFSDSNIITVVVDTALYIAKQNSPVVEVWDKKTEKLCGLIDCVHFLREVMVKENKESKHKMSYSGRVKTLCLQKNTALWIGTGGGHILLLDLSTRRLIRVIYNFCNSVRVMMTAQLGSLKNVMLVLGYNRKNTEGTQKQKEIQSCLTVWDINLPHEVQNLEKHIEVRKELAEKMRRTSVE
Chain of endogenous LRRK2 (Q5S006 whole entry): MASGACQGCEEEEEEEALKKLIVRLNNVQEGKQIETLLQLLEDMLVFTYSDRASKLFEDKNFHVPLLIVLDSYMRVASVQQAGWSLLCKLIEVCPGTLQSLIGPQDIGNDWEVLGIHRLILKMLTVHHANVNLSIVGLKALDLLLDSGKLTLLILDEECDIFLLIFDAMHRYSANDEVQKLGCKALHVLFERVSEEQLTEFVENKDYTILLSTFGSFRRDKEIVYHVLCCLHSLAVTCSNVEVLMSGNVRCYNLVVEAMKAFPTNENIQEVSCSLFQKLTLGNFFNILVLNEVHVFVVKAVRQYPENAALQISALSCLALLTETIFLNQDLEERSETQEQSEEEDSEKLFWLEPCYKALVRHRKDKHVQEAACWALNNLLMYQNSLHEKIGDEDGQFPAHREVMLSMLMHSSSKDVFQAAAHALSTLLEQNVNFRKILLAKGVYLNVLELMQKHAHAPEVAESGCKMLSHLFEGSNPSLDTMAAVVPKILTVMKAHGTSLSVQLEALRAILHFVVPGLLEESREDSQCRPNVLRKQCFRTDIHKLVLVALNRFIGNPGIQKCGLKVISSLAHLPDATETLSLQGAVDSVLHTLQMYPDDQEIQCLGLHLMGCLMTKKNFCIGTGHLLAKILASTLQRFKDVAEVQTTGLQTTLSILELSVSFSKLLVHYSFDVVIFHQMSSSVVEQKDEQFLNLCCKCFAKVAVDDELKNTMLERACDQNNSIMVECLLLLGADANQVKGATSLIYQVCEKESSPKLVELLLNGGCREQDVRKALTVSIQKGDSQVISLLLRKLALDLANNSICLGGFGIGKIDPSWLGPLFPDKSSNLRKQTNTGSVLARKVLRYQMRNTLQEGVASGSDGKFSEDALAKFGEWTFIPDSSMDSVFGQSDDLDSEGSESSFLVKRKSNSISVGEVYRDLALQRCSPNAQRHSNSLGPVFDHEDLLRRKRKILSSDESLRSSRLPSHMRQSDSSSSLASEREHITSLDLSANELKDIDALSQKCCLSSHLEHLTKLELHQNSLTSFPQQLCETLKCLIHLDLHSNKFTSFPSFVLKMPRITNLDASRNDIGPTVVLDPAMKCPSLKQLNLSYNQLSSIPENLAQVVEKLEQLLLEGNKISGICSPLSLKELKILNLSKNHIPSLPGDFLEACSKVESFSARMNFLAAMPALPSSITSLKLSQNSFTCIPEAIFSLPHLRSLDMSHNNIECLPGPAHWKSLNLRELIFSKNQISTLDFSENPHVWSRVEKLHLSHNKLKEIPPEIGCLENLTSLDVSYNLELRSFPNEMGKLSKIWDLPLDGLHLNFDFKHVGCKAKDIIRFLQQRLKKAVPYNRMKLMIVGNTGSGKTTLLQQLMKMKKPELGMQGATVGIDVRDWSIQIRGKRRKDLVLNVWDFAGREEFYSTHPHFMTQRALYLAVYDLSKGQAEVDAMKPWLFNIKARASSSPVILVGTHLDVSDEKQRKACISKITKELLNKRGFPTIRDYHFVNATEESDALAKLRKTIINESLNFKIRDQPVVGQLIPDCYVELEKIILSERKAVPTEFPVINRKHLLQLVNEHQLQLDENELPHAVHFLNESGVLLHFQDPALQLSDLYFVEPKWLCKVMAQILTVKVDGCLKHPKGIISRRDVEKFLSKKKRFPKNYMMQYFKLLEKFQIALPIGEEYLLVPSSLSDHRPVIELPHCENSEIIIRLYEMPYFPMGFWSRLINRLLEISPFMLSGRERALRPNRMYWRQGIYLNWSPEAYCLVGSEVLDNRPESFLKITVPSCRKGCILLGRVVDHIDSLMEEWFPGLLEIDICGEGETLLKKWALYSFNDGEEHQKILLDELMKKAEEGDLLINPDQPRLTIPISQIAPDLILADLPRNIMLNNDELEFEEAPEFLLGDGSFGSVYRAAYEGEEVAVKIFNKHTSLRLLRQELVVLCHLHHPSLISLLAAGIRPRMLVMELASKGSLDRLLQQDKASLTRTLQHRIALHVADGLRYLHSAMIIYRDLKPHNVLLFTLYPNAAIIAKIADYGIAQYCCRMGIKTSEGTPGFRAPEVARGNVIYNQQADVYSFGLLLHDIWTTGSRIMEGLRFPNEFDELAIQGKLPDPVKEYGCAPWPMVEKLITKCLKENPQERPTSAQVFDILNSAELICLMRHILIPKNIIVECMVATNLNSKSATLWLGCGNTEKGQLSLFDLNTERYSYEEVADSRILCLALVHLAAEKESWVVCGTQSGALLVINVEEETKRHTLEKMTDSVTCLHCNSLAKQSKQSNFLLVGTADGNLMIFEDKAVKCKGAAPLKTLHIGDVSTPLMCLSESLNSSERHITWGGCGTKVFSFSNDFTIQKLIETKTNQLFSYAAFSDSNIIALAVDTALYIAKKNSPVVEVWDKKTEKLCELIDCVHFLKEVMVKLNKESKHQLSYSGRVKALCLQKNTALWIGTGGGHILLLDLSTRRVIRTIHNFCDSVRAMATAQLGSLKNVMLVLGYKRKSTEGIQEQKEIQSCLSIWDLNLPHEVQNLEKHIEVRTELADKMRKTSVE
Chain of GFP-LRRK2[A2016T] (Q5S007 whole entry A2016T): as the sequence (Q5S007 whole entry A2016T) above

Row | SMILES | Exposure in mouse brains [1] | Inhibition of the A2016T mutant (LRRK2[A2016T]) | Concentration inducing dephosphorylation of Ser910 and 935 (GFP-LRRK2[A2016T]) [µM] | Ser910 and Ser935 dephosphorylation of LRRK2 in kidney and spleen (endogenous LRRK2; oral gavage 10 mg/kg, 10 mg/kg) | Ser910 and Ser935 dephosphorylation of LRRK2 in kidney and spleen (endogenous LRRK2; oral gavage 50 mg/kg) | Inhibition of LRRK2 Ser910 or Ser935 phosphorylation in the brain (endogenous LRRK2; oral gavage 10 or 50 mg/kg) | inhibition at 1 µM (CAMKKβ) [%] | inhibition at 1 µM (CHK2) [%] | inhibition at 1 µM (NUAK1) [%] | inhibition at 1 µM (PHKã1(PBK)) [%] | inhibition at 1 µM (TSSK1) [%]
1 | COc1cc(N2CCOCC2)ccc1Nc1ncc(F)c(Nc2ccccc2NS(C)(=O)=O)n1 [CZC-25146] | neither compound is able to achieve good exposure in mouse brains | – | – | – | – | – | – | – | – | – | –
2 | COc1cc(C(=O)N2CCC(N3CCN(C)CC3)CC2)ccc1Nc1ncc2c(n1)N(C)c1ccccc1C(=O)N2C [LRRK2-IN-1] | neither compound is able to achieve good exposure in mouse brains | dramatic resistance | – | – | – | – | – | – | – | – | –
3 | COc1cc(N2CCC(N3CCN(C)CC3)CC2)ccc1Nc1ncc(Cl)c(Nc2ccccc2S(=O)(=O)C(C)C)n1 [TAE684, 5-chloro-N4-(2-(isopropylsulfonyl)phenyl)-N2-(2-methoxy-4-(4-(4-methyl-piperazin-1-yl)piperidin-1-yl)phenyl)pyrimidine-2,4-diamine] | – | relatively insensitive to the A2016T mutation; also recorded: maintains significant inhibition | 1 to 3 | slightly lower effect; also recorded: substantially inhibits | complete Ser910 and Ser935 dephosphorylation | no inhibition; also recorded: does not inhibit phosphorylation; also recorded: not in brain | > 90 | > 90 | > 90 | > 90 | > 90
